Paper PMC7617869, “Molecular glues that inhibit deubiquitylase activity and inflammatory signaling” (Nature Structural & Molecular Biology, 2025)
Several values for one entry are separate records, joined by “and”; a condition that tells them apart may be missing. Equal entries are not always repeated.

Experiments:
[1] = system: ISRE in THP-1 cells (TLR9 agonist ODN 2216); assay: THP-1 ISRE luciferase reporter, ODN 2216 stimulation; format: cell-based, human; details: ODN 2216 1 µM, 4 μM compound, 16 h
Procedure: THP-1 in vitro experiments
THP-1-DualTM cells (InvivoGen), derived from a human monocytic cell line, isolated from a patient with acute monocytic leukaemia, were cultured as per manufacturer’s guidance. Cells were seeded at 1x10^6 cells/mL in RPMI1640 media containing 10% fetal bovine serum (FBS), 1% penicillin-streptomycin (PS) (Gibco Laboratories) with DMSO (0.1%) (control) or in media containing JMS-175- […]
ng/mL) (Merck Life Science), ODN 2216 (1 µM) (Miltenyi Biotec), or Poly:IC (1 µg/mL) (InvivoGen).
Tofacitinib (Cambridge Biosciences) at 0.4 µM was used for comparison against a known JAK inhibitor.
Cells were centrifuged at 300 g for 5 minutes. Supernatant was removed and subjected to simultaneous study of the NF -κB pathway, by monitoring the activity of secreted alkaline phosphatase reporter (SEAP), and the IRF pathway, by assessing the activity o f a secreted Lucia luciferase using QUANTI - Blue ™ Solution and QUANTI -Luc™ 4 Lucia/Gaussia (InvivoGen), respectively, as per manufacturer’s instructions. Pelleted cells were used for FACS analysis using IFNα/β R1 APC-conjugated antibody or isotype control (Biotechne, FAB245A and IC002A), or unstained staining procedure with and without Zombie GreenTM (Biolegend). Samples were analysed using CytoFlex LX (Beckman) (50,000 live cells per condition). Median fluorescence intensity for APC channel gated on single cell live cells was analysed and compared as a percentage to control (no stimulation condition). […]

BRISC = target: T1, BRISC (Homo sapiens, UniProt P46736+Q15018+Q9NXR7); assay: Michaelis–Menten analysis of BRISC inhibition; format: biochemical
T1 construct: made in house; host or cells: Spodoptera frugiperda (Sf9) insect cells, MultiBac
Procedure: IQF assays were performed in DUB reaction buffer containing 50 mM HEPES–NaOH pH 7.0, 100 mM NaCl, 0.1 mg ml^−1 BSA, 1 mM DTT and 0.03% v/v Brij-35. […] The final concentration of BRISC WT, all BRISC mutants, HsBRISCΔLoop, MmBRISC and DrBRISCΔNΔC was 1 nM. Other enzymes were tested at the following concentrations: 5 nM ARISC (FL), 10 nM CfBRISCΔNΔC, 250 nM AMSH* (ref. [43]), 500 nM USP2 and 1 μM trypsin (Sigma, 9002-07-7). For Michaelis–Menten experiments, 1 nM BRISC with 0–1 μM IQF K63-linked diubiquitin substrate was used. Michaelis–Menten analyses and Lineweaver–Burk plots were calculated using GraphPad Prism (version 9.0).

BRISC (FL) / BRISCΔNΔC = target: T2, BRISC (FL) / BRISCΔNΔC (Homo sapiens, UniProt P46736+Q15018+Q9NXR7); assay: Mass photometry of BRISC dimer formation; details: for Dimer fraction: 50 nM BRISCΔNΔC
T2 construct: BRISCΔNΔC (MERIT40ΔN, Abraxas 2ΔC); made in house; host or cells: Spodoptera frugiperda Sf9 insect cells (MultiBac)
Procedure: Immediately before mass photometry measurement, the BRISC–inhibitor mix was diluted in 25 mM HEPES pH 7.5, 150 mM NaCl and 1 mM TCEP to 10 nM BRISC ([…]). Then, 12 μl of the diluted sample was used for the final mass photometry measurement, following autofocus stabilization. […] Next, 0.5 μl of inhibitor was mixed with 19.5 μl of 50 nM BRISCΔNΔC (2.5% v/v DMSO) and incubated at room temperature for 15 min. The BRISC–inhibitor mix was used directly for mass photometry measurement using buffer-free autofocus stabilization.
Microscope coverslips were prepared according to an established protocol. Experiments were performed using a OneMP mass photometer (Refeyn). Videos were recorded for 60 s using AcquireMP (Refeyn) and processed using DiscoverMP (Refeyn). Mass photometry image processing was previously described. Briefly, contrast-to-mass (C2M) calibration was performed using protein standards (66–669 kDa) diluted in buffer (25 mM HEPES pH 7.5, 150 mM NaCl and 1 mM TCEP). […] The mass distribution from each run was in the form of a histogram, where the count refers to each landing event and a Gaussian sum is fitted to the data. The relative amount of each species was calculated as the area of each Gaussian, where σ refers to the s.d. of the fitted Gaussian. The dimer fraction refers to the percentage of the total counts corresponding to the 564-kDa BRISCΔNΔC dimer complex. Curves and half-maximal effective concentration values were fitted and calculated using the GraphPad Prism (version 9.0) built-in dose–response equation for concentration of agonist versus response (variable slope).

SMILES: Cn1cc(NC(=O)c2c(Cl)cccc2Cl)c(C(=O)NC2CCN(C(=O)c3c(Cl)cccc3Cl)CC2)n1 [AP-5-145]
- ISRE luciferase signal in THP-1 supernatant [1]: 228.667 and 315.667 and 335.333

SMILES: O=C(NC1CCNCC1)c1nn(C(=O)c2c(Cl)cccc2Cl)cc1NC(=O)c1c(Cl)cccc1Cl [JMS-175-2]
- Initial velocity (FU/min) (BRISC; di-Ub-TAMRA 31.2 nM, inhibitor 48 nM): 124.7 FU/min and 137.4 FU/min and 146.6 FU/min
- Initial velocity (FU/min) (BRISC; di-Ub-TAMRA 31.2 nM, inhibitor 195 nM): 137.4 FU/min and 132.5 FU/min and 144.8 FU/min
- Initial velocity (FU/min) (BRISC; di-Ub-TAMRA 31.2 nM, inhibitor 781 nM): 114 FU/min and 123.2 FU/min and 122.2 FU/min
- Initial velocity (FU/min) (BRISC; di-Ub-TAMRA 31.2 nM, inhibitor 3.12 μM): 80.48 FU/min and 77.42 FU/min and 88.2 FU/min
- Initial velocity (FU/min) (BRISC; di-Ub-TAMRA 31.2 nM, inhibitor 12.5 μM): 62.2 FU/min and 65.87 FU/min and 55.25 FU/min
- Initial velocity (FU/min) (BRISC; di-Ub-TAMRA 31.2 nM, inhibitor 50 μM): 31.39 FU/min and 49.47 FU/min and 41.04 FU/min
- Initial velocity (FU/min) (BRISC; di-Ub-TAMRA 62.5 nM, inhibitor 48 nM): 222.1 FU/min and 242.3 FU/min and 243.8 FU/min
- Initial velocity (FU/min) (BRISC; di-Ub-TAMRA 62.5 nM, inhibitor 195 nM): 205.5 FU/min and 232 FU/min and 265.7 FU/min
- Initial velocity (FU/min) (BRISC; di-Ub-TAMRA 62.5 nM, inhibitor 781 nM): 172.4 FU/min and 226.1 FU/min and 228.4 FU/min
- Initial velocity (FU/min) (BRISC; di-Ub-TAMRA 62.5 nM, inhibitor 3.12 μM): 160.2 FU/min and 117.4 FU/min and 160.5 FU/min
- Initial velocity (FU/min) (BRISC; di-Ub-TAMRA 62.5 nM, inhibitor 12.5 μM): 80.26 FU/min and 123.7 FU/min and 100.7 FU/min
- Initial velocity (FU/min) (BRISC; di-Ub-TAMRA 62.5 nM, inhibitor 50 μM): 43.48 FU/min and 66.23 FU/min and 64.63 FU/min
- Initial velocity (FU/min) (BRISC; di-Ub-TAMRA 125 nM, inhibitor 48 nM): 476.9 FU/min and 540.8 FU/min and 503.9 FU/min
- Initial velocity (FU/min) (BRISC; di-Ub-TAMRA 125 nM, inhibitor 195 nM): 474.4 FU/min and 538.4 FU/min and 481.2 FU/min
- Initial velocity (FU/min) (BRISC; di-Ub-TAMRA 125 nM, inhibitor 781 nM): 402.8 FU/min and 468.4 FU/min and 474 FU/min
- Initial velocity (FU/min) (BRISC; di-Ub-TAMRA 125 nM, inhibitor 3.12 μM): 310.9 FU/min and 277.7 FU/min and 256.8 FU/min
- Initial velocity (FU/min) (BRISC; di-Ub-TAMRA 125 nM, inhibitor 12.5 μM): 183.3 FU/min and 175.6 FU/min and 208.5 FU/min
- Initial velocity (FU/min) (BRISC; di-Ub-TAMRA 125 nM, inhibitor 50 μM): 67.12 FU/min and 88.75 FU/min and 84.05 FU/min
- Initial velocity (FU/min) (BRISC; di-Ub-TAMRA 250 nM, inhibitor 48 nM): 886 FU/min and 905.7 FU/min and 906.9 FU/min
- Initial velocity (FU/min) (BRISC; di-Ub-TAMRA 250 nM, inhibitor 195 nM): 866.4 FU/min and 900.9 FU/min and 960.9 FU/min
- Initial velocity (FU/min) (BRISC; di-Ub-TAMRA 250 nM, inhibitor 781 nM): 740.9 FU/min and 834.7 FU/min and 869 FU/min
- Initial velocity (FU/min) (BRISC; di-Ub-TAMRA 250 nM, inhibitor 3.12 μM): 573.6 FU/min and 456.6 FU/min and 483.6 FU/min
- Initial velocity (FU/min) (BRISC; di-Ub-TAMRA 250 nM, inhibitor 12.5 μM): 283.5 FU/min and 316 FU/min and 354.2 FU/min
- Initial velocity (FU/min) (BRISC; di-Ub-TAMRA 250 nM, inhibitor 50 μM): 119.1 FU/min and 114.6 FU/min and 160 FU/min
- Initial velocity (FU/min) (BRISC; di-Ub-TAMRA 500 nM, inhibitor 195 nM): 1677 FU/min and 3345 FU/min and 1765 FU/min
- Initial velocity (FU/min) (BRISC; di-Ub-TAMRA 500 nM, inhibitor 3.12 μM): 1143 FU/min and 881.4 FU/min and 1578 FU/min
- Initial velocity (FU/min) (BRISC; di-Ub-TAMRA 500 nM, inhibitor 12.5 μM): 579 FU/min and 1146 FU/min and 683.3 FU/min
- Initial velocity (FU/min) (BRISC; di-Ub-TAMRA 1000 nM, inhibitor 48 nM): 3019 FU/min and 3362 FU/min and 3486 FU/min
- Initial velocity (FU/min) (BRISC; di-Ub-TAMRA 1000 nM, inhibitor 195 nM): 3093 FU/min and 3236 FU/min and 3210 FU/min
- Initial velocity (FU/min) (BRISC; di-Ub-TAMRA 1000 nM, inhibitor 781 nM): 2371 FU/min and 2828 FU/min and 2787 FU/min
- Initial velocity (FU/min) (BRISC; di-Ub-TAMRA 1000 nM, inhibitor 3.12 μM): 1731 FU/min and 1418 FU/min and 1905 FU/min
- Initial velocity (FU/min) (BRISC; di-Ub-TAMRA 1000 nM, inhibitor 12.5 μM): 1009 FU/min and 1193 FU/min and 1032 FU/min
- Initial velocity (FU/min) (BRISC; di-Ub-TAMRA 1000 nM, inhibitor 50 μM): 371.3 FU/min and 640.2 FU/min and 667.9 FU/min
- mode of inhibition (BRISC; enzyme activity at different substrate concentrations): not competitive inhibitors
- dimer formation with increasing inhibitor concentration (mass photometry) (BRISC (FL) / BRISCΔNΔC): dose-dependent increase in dimer formation
- Dimer fraction (BRISC (FL) / BRISCΔNΔC; [Inhibitor (μM)] 5000): 0.32 and 0.27 and 0.22
- Dimer fraction (BRISC (FL) / BRISCΔNΔC; [Inhibitor (μM)] 10000): 0.35 and 0.32 and 0.21
